In article PMC7488365 (Acta Pharmaceutica Sinica. B, 2019):
Read-outs that look alike come from different tables or passages of the source.

Legend:
USP28 [1] = molecular target: T1, USP28 (Homo sapiens, UniProt Q96RU2); assay: biochemical; type: biochemical; conditions: for inhibition at 12.5 µM: read-out: Inhibition rate at 12.5 μmol/L (%); for Inhibition rate at 12.5 μmol/L (%): 12.5 μmol/L compound, Ub-AMC substrate
T1 sequence (Q96RU2 1-700): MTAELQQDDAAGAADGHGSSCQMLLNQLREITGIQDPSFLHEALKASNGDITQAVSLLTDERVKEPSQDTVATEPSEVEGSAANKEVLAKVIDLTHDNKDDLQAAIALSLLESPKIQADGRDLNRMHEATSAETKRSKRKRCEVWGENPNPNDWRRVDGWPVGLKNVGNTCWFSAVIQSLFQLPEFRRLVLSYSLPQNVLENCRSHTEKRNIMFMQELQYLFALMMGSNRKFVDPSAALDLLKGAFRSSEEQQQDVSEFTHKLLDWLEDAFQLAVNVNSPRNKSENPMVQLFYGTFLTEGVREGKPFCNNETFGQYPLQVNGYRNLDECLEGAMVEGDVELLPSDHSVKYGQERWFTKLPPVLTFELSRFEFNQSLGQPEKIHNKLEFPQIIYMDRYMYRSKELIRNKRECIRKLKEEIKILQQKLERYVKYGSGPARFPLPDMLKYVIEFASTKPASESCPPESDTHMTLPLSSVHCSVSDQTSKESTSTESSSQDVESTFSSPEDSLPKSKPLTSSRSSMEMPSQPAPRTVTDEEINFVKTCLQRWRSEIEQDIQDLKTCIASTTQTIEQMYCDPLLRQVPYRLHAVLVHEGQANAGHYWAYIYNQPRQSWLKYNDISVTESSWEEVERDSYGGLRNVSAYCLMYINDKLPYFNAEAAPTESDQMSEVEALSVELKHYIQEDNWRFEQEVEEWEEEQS

USP28 [2] = molecular target: T1, USP28; assay: Bio-layer interferometry; type: binding
USP28 [3] = molecular target: T1, USP28; conditions: read-out: EC50 USP28 inhibition; cited from earlier work
HGC-27 cells = assay: MTT cell viability assay, HGC-27; conditions: Homo sapiens, HGC-27, 72 h, read-out: IC50 cell viability HGC-27
[4] = system: USP28, LSD1 and total c-Myc in HGC-27 cells; assay: Western blotting of USP28, LSD1 and total c-Myc; type: cell-based, human; conditions: HGC-27, 3 h, even at 40 μmol/L
MKN45 cells = assay: cells; conditions: Homo sapiens, MKN-45, 72 h, read-out: IC50 cell viability MKN45
GES-1 cells = assay: cells; conditions: Homo sapiens, GES1, 72 h, read-out: IC50 cell viability GES-1
MGC-803 cells = assay: cells; conditions: Homo sapiens, MGC-803, 72 h, read-out: IC50 cell viability MGC-803

SMILES | IC50 (USP28 [1]) | inhibition at 12.5 µM (USP28 [1]) | Inhibition rate at 12.5 μmol/L (%) (USP28 [1]) | also measured
CCCSc1nc(NCCN)c2nnn(Cc3ccccc3Cl)c2n1 [Compound 17, N^1-(3-(2-Chlorobenzyl)-5-(propylthio)-3H-[1,2,3]triazolo[4,5-d]pyrimidin-7-yl)ethane-1,2-diamine] | 13.21 ± 0.03 µM | 56% |  | 
CCCSc1nc(NCCN)c2nnn(CCNC(=O)OC(C)(C)C)c2n1 [Compound 13, Tert-butyl(2-(7-((2-aminoethyl)amino)-5-(propylthio)-3H-[1,2,3]triazolo[4,5-d]pyrimidin-3-yl)ethyl)carbamate] | > 100 µM |  | Inactive | 
CCCSc1nc(NCCCN2CCOCC2)c2nnn(Cc3ccccc3)c2n1 [Compound 4, 3-Benzyl-N-(3-morpholinopropyl)-5-(propylthio)-3H-[1,2,3]triazolo[4,5-d]pyrimidin-7-amine] | > 100 µM |  | Inactive | 
CCCSc1nc(NCCNC(=O)OC(C)(C)C)c2nnn(Cc3ccccc3)c2n1 [Compound 9, Tert-butyl(2-((3-benzyl-5-(propylthio)-3H-[1,2,3]triazolo[4,5-d]pyrimidin-7-yl)amino)ethyl)carbamate] | > 100 µM |  | Inactive | 
C#CCSc1nc(NCCN)c2nnn(Cc3ccc(Cl)cc3)c2n1 [Compound 24, N^1-(3-(4-Chlorobenzyl)-5-(prop-2-yn-1-ylthio)-3H-[1,2,3]triazolo[4,5-d]pyrimidin-7-yl)ethane-1,2-diamine] | 14.5 ± 0.19 µM | 59.9% |  | 
CCCSc1nc(NCCN)c2nnn(Cc3ccc(Br)cc3)c2n1 [Compound 18, N^1-(3-(4-Bromobenzyl)-5-(propylthio)-3H-[1,2,3]triazolo[4,5-d]pyrimidin-7-yl)ethane-1,2-diamine] | 6 ± 0.05 µM | 76.7% |  | 
CCCSc1nc(NCCN(C)C)c2nnn(Cc3ccccc3)c2n1 [Compound 10, N^1-(3-Benzyl-5-(propylthio)-3H-[1,2,3]triazolo[4,5-d]pyrimidin-7-yl)-N^2,N^2-dimethylethane-1,2-diamine] | > 100 µM |  | Inactive | 
CCCSc1nc(NCc2cccnc2)c2nnn(Cc3ccccc3)c2n1 [Compound 6, 3-Benzyl-5-(propylthio)-N-(pyridin-3-ylmethyl)-3H-[1,2,3]triazolo[4,5-d]pyrimidin-7-amine] | 20.5 ± 1.45 µM | 23.1% |  | 
NCCNc1nc(SCc2ccccc2)nc2c1nnn2Cc1ccc(Cl)cc1 [Compound 22, N^1-(5-(Benzylthio)-3-(4-chlorobenzyl)-3H-[1,2,3]triazolo[4,5-d]pyrimidin-7-yl)ethane-1,2-diamine] | 23.3 ± 0.59 µM | 45% |  | 
CCCSc1nc(NCCN)c2nnn(Cc3ccccc3)c2n1 [Compound 8, N^1-(3-benzyl-5-(propylthio)-3H-[1,2,3]triazolo[4,5-d]pyrimidin-7-yl)ethane-1,2-diamine] | 4.34 ± 0.3 µM | 80% |  | Kd (USP28 [2]): 0.09 µM
N#CSc1cc(SC#N)c(N)nc1N [PR-619] |  |  |  | EC50 (USP28 [3]): ~8 µM
NCCNc1ncnc2c1nnn2Cc1ccc(Cl)cc1 [Compound 21, N^1-(3-(4-Chlorobenzyl)-3H-[1,2,3]triazolo[4,5-d]pyrimidin-7-yl)ethane-1,2-diamine] | 12.3 ± 0.27 µM | 62.2% |  | 
CCCSc1nc(NCCNC)c2nnn(Cc3ccccc3)c2n1 [Compound 11, N^1-(3-Benzyl-5-(propylthio)-3H-[1,2,3]triazolo[4,5-d]pyrimidin-7-yl)-N^2-methylethane-1,2-diamine] | 8.55 ± 0.87 µM | 61.7% |  | 
Cc1nc(NCCN)c2nnn(Cc3ccc(Cl)cc3)c2n1 [Compound 23, N^1-(3-(4-Chlorobenzyl)-5-methyl-3H-[1,2,3]triazolo[4,5-d]pyrimidin-7-yl)ethane-1,2-diamine] | 34.8 ± 1.27 µM | 35% |  | 
CCCSc1nc(NCCN)c2nnn(CCCc3ccccc3)c2n1 [Compound 14, N^1-(3-(3-Phenylpropyl)-5-(propylthio)-3H-[1,2,3]triazolo[4,5-d]pyrimidin-7-yl)ethane-1,2-diamine] | 27.6 ± 2.2 µM |  |  | 
CCCSc1nc(NCCNC(C)=O)c2nnn(Cc3ccc(Cl)cc3)c2n1 [Compound 20, N-(2-((3-(4-Chlorobenzyl)-5-(propylthio)-3H-[1,2,3]triazolo[4,5-d]pyrimidin-7-yl)amino)ethyl)acetamide] | > 100 µM |  | Inactive | 
CCCSc1nc(NCCN)c2nnn(CCO)c2n1 [Compound 12, 2-(7-((2-Aminoethyl)amino)-5-(propylthio)-3H-[1,2,3]triazolo[4,5-d]pyrimidin-3-yl)ethan-1-ol] | > 100 µM |  | Inactive | IC50 (HGC-27 cells): > 100 µM; protein levels of USP28, LSD1 and total c-Myc [4]: remained unchanged; Binding to USP28 (in words) (USP28 [2]; BLI): failed to bind; IC50 (MKN45 cells): > 50 µM; IC50 (GES-1 cells): > 100 µM; IC50 (MGC-803 cells): > 50 µM
CCCSc1nc(NCCN)c2nnn(Cc3ccc(O)cc3)c2n1 [Compound 16, 4-((7-((2-Aminoethyl)amino)-5-(propylthio)-3H-[1,2,3]triazolo[4,5-d]pyrimidin-3-yl)methyl)phenol] | 28.7 ± 1.36 µM | 36.2% |  | 
CCCSc1nc(NCCN)c2nnn(CCc3c[nH]c4ccccc34)c2n1 [Compound 15, N^1-(3-(2-(1H-Indol-3-yl)ethyl)-5-(propylthio)-3H-[1,2,3]triazolo[4,5-d]pyrimidin-7-yl)ethane-1,2-diamine] | 24.8 ± 0.58 µM | 34% |  | 
CCCSc1nc(NCc2ccco2)c2nnn(Cc3ccccc3)c2n1 [Compound 5, 3-Benzyl-N-(furan-2-ylmethyl)-5-(propylthio)-3H-[1,2,3]triazolo[4,5-d]pyrimidin-7-amine] |  | 45.6% |  | IC50 (USP28 [1]; read-out: IC50 against USP28, Ub-AMC 100 nmol/L, USP28 62.5 nmol/L): 14.2 ± 0.19 µM
CCCSc1nc(N2CCNCC2)c2nnn(Cc3ccccc3)c2n1 [Compound 7, 3-Benzyl-7-(piperazin-1-yl)-5-(propylthio)-3H-[1,2,3]triazolo[4,5-d]pyrimidine] | 10.2 ± 1.3 µM | 50% |  | 
CCCSc1nc(NC2CC2)c2nnn(Cc3ccccc3)c2n1 [Compound 3, 3-Benzyl-N-cyclopropyl-5-(propylthio)-3H-[1,2,3]triazolo[4,5-d]pyrimidin-7-amine] | > 100 µM |  | Inactive | 
